The record followed here is patent US20130209543A1, “ENHANCED TREATMENT REGIMENS USING MTOR INHIBITORS” (Intellikine LLC, priority 2011, published 2013).

Read-outs that look alike come from different tables or passages of the source.

One test deals with PI3K γ (Homo sapiens, UniProt P48736). Description: PI3K γ kinase assay. Format: biochemical.
The target in a further test is PI3K β (Homo sapiens, UniProt P42338). Description: PI3K β kinase assay. It counts as biochemical.
Another test deals with T1, mTOR (Homo sapiens, UniProt P42345).
T1 construct: purchased Invitrogen
In words: mTOR kinase inhibition assay. It counts as biochemical.

In the next test the target is PI3K α (Homo sapiens, UniProt P42336). Description: PI3K α kinase assay. Format: biochemical.
For another test, the system named is PC3. Description: PC3 proliferation. Conditions: Homo sapiens, PC-3; for IC50: Table 2. It counts as cell-based.
A further test has as its target PI3K δ (Homo sapiens, UniProt O00329). In words: PI3K δ kinase assay. It counts as biochemical.

By IC50 is commonly meant the concentration needed to halve the response being measured. In general, EC50 refers to the concentration at which the effect is half-maximal. A high value points to weaker potency.

PI3K δ, sequence (O00329 whole entry, species assumed): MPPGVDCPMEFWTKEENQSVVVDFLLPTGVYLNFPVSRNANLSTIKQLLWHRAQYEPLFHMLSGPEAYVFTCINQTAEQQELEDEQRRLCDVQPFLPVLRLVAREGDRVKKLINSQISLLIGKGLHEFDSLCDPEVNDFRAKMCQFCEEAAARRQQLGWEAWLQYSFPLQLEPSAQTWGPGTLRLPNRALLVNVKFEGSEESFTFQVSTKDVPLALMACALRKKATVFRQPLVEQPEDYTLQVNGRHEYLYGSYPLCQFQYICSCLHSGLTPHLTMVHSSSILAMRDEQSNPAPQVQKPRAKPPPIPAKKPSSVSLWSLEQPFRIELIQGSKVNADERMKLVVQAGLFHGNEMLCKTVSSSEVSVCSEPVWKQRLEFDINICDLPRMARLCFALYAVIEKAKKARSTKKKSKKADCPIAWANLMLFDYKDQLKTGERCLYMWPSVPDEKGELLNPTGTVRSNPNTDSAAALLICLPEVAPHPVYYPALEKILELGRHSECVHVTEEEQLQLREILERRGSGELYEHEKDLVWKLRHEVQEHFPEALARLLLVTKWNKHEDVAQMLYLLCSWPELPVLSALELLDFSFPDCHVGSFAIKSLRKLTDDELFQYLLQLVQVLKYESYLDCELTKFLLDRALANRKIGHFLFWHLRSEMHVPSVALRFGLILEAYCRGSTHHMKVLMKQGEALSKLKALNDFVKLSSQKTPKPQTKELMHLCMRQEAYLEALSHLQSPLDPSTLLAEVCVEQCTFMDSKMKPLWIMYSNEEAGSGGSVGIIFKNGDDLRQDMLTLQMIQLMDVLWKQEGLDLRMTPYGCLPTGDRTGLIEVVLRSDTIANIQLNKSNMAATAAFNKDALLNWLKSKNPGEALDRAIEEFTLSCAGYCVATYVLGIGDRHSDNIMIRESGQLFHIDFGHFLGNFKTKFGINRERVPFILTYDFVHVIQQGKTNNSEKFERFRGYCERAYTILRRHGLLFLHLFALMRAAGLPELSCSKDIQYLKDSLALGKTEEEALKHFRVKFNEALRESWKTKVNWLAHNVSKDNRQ
PI3K δ, sequence (P27986 whole entry partner, species assumed): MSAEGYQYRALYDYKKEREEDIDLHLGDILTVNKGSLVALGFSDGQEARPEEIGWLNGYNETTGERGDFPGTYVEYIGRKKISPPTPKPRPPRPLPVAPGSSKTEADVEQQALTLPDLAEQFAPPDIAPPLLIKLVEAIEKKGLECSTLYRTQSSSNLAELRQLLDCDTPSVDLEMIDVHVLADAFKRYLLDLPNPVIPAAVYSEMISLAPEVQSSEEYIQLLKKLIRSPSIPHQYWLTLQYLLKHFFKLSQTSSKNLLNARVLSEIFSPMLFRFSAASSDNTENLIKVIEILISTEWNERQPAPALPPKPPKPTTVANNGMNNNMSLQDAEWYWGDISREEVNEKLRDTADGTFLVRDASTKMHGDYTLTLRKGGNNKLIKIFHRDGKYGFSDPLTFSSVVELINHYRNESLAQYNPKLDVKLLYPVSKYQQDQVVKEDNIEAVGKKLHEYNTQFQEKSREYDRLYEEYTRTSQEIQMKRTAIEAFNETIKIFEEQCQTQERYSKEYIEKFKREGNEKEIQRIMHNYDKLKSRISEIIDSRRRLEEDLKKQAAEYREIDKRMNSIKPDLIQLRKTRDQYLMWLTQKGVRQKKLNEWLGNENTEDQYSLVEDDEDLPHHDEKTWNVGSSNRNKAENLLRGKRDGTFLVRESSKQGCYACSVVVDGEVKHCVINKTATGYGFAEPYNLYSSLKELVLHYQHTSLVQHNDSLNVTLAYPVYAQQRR
PI3K γ, sequence (P48736 whole entry, species assumed): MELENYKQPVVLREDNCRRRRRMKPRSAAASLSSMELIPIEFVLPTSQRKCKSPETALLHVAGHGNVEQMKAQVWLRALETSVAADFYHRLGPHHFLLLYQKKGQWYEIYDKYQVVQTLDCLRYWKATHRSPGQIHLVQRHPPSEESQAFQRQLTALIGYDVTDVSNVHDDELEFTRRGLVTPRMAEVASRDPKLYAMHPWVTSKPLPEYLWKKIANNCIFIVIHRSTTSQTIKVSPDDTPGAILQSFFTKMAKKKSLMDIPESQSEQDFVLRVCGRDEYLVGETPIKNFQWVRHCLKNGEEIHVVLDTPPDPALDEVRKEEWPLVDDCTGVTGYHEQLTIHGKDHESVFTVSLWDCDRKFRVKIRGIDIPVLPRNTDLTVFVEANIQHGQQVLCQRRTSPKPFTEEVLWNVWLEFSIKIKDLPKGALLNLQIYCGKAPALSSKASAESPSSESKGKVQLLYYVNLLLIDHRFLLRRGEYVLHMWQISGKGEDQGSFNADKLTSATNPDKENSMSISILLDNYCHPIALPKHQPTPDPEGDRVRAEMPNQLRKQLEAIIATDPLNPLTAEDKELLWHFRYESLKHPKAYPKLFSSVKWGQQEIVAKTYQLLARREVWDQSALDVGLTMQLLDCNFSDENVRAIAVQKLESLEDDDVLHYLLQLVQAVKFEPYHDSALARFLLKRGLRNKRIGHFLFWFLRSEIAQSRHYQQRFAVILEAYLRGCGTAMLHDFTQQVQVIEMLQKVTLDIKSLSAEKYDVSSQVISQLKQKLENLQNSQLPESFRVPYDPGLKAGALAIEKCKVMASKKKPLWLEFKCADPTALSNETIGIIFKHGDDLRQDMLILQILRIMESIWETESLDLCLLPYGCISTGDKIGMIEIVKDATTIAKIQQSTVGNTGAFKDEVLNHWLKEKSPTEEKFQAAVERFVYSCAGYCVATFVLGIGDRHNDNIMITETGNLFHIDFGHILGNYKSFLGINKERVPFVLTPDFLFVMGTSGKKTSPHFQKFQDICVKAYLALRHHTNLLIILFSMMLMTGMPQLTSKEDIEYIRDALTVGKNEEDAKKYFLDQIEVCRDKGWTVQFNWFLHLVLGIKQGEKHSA
PI3K α, sequence (P42336 whole entry, species assumed): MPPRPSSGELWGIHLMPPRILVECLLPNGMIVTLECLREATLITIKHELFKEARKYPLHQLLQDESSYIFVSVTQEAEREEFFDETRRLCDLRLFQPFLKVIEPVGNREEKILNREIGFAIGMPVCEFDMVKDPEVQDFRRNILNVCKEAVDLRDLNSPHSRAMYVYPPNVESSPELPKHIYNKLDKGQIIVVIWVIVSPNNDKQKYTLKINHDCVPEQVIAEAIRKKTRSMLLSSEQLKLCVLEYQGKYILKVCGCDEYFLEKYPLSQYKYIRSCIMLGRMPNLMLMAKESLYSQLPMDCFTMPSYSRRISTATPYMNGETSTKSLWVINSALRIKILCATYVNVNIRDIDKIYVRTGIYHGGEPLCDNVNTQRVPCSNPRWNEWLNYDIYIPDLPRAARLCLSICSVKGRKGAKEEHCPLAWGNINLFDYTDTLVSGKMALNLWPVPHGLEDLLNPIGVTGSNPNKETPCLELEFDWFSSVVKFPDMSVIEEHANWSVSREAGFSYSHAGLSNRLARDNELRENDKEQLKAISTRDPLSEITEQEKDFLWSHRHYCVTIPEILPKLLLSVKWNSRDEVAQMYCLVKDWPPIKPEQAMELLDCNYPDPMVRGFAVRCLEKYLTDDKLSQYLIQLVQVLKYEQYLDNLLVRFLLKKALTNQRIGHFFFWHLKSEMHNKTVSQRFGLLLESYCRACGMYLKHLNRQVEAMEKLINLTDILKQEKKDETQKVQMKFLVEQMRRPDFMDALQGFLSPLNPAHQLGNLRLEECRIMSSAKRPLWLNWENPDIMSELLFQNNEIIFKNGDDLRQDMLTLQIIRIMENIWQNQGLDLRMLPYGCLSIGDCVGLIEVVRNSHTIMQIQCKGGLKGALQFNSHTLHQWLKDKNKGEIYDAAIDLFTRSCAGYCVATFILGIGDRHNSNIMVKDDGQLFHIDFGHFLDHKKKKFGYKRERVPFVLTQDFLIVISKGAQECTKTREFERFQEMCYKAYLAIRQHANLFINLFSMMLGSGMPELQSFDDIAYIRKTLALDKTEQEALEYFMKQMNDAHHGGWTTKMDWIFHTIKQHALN
PI3K α, sequence (P27986 whole entry partner, species assumed): as the sequence (P27986 whole entry partner, species assumed) above
PI3K β, sequence (P42338 whole entry, species assumed): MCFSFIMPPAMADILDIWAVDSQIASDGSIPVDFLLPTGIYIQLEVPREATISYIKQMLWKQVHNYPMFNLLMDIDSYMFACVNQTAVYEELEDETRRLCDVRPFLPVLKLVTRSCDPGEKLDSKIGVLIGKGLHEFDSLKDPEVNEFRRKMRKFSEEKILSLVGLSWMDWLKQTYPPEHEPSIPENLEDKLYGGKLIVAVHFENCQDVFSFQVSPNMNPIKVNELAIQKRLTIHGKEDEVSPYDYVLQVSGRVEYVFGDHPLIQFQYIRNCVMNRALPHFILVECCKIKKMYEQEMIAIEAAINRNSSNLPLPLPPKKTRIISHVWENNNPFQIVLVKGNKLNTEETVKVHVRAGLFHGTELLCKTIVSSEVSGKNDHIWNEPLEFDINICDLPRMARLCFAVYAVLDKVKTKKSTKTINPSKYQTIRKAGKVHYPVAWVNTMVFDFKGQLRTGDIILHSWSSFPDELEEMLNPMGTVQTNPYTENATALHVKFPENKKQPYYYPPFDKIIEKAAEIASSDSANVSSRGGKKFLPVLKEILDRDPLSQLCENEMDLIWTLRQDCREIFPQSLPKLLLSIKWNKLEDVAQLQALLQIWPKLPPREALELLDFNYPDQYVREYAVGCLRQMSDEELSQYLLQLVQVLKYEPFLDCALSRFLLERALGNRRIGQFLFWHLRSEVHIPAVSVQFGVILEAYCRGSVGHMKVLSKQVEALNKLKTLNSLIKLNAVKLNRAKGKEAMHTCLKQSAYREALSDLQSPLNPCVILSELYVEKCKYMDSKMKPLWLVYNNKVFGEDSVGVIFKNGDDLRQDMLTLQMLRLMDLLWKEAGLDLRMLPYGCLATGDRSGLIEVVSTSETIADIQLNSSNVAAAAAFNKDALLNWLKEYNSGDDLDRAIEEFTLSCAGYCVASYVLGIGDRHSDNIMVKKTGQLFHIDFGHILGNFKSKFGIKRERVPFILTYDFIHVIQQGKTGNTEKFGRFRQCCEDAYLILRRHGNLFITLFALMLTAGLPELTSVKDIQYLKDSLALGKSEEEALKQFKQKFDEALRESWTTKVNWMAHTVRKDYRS
PI3K β, sequence (P27986 whole entry partner, species assumed): as the sequence (P27986 whole entry partner, species assumed) above

`CC(C)n1cc(-c2ccc3oc(N)nc3c2)c2c(N)ncnc21` [Compound 8]: the IC50 at PI3K γ (Table 1) is under 1000 nM; at PI3K β (Table 1) it was over 10000 nM; on mTOR (Table 1, read-out: mTOR IC50) it was under 100 nM; against PI3K α (Table 1), under 1000 nM; against PI3K δ (Table 1), under 1000 nM. The EC50 in the test with PC3 (Table 1) was under 100 nM.
With `CC(C)n1nc(-c2cc3cccc(O)c3[nH]2)c2c(N)ncnc21` [Compound 11], the IC50 against PI3K γ (Table 2) was 100 to 500 nM; against PI3K β (Table 2) it was over 500 nM; at mTOR (Table 2, read-out: mTORC IC50), under 5 nM; at PI3K α (Table 2), over 500 nM; in the test with PC3 it was 25 to 50 nM; on PI3K δ (Table 2), 100 to 500 nM.
On to `CC(C)n1nc(-c2cc3cc(O)cc(Cl)c3[nH]2)c2c(N)ncnc21` [Compound 15], for which the IC50 on PI3K γ (Table 2) was 25 to 50 nM; at PI3K β (Table 2), over 500 nM; at mTOR (Table 2, read-out: mTORC IC50), under 5 nM; against PI3K α (Table 2), over 500 nM; in the test on PC3 it was 25 to 50 nM; on PI3K δ (Table 2), 25 to 50 nM.
Turning to `CC(C)n1nc(-c2cc3cc(O)cc(F)c3[nH]2)c2c(N)ncnc21` [Compound 16], the IC50 against PI3K γ (Table 2) is 100 to 500 nM; against PI3K β (Table 2) it was over 500 nM; on mTOR (Table 2, read-out: mTORC IC50) it was under 5 nM; against PI3K α (Table 2), over 500 nM; with PC3, 100 to 500 nM; against PI3K δ (Table 2), 50 to 100 nM.
With `Nc1ncnc2c1c(-c1cc3cc(O)ccc3[nH]1)nn2C1CCCCC1` [Compound 26], the IC50 against PI3K γ (Table 2) was 100 to 500 nM; on PI3K β (Table 2), over 500 nM; at mTOR (Table 2, read-out: mTORC IC50) it was 5 to 10 nM; at PI3K α (Table 2), over 500 nM; with PC3, 100 to 500 nM; against PI3K δ (Table 2), 50 to 100 nM.
